Data reported in patent US20220008391A1, “NOVEL COMPOUNDS FOR CONTROLLING ARTHROPODS” (Bayer Animal Health GmbH, priority 2018, published 2022).
≈ marks a conversion by molar mass, not a printed value.

Columns and labels:
[1] = Measurement of solubility in buffer at pH 6.5; type: physicochemical; conditions: aqueous buffer, kinetic from dmso stock; PBS buffer pH 6.5, shaken 24h at rt, LC-MSMS; read-out: Solubility of example compounds at pH 6.5
Method: Measurement of Solubility in Buffer at pH 6.5 2-4 mg of the test compound are dissolved in DMSO to reach a concentration of 50 g/L (solution A). To 10 μl of this solution 960 μl PBS buffer pH 6.5 are added (final concentration: 515 μg/1); the mixture is shaken for 24h at rt in a 96 well plate. An aliquot is centrifuged at 42000 rpm für 30 min. The supernatant is diluted with acetonitrile/water (8:2) 1:10 and 1:1000 resp. This diluted samples are analyzed by LC-MSMS. Calibration: 10 μl of solution A are diluted with 823 μl DMSO (final concentration: 600 μg/ml), which is further diluted with acetonitrile/water 8:2 by a factor of 100 (provides solution B). The calibration curve is obtained from solution B by further diluting with acetonitrile/water 8:2 with target concentrations of 1.2-12-60-600 ng/ml and injecting these four solutions for MS measurement. PBS-Puffer: 6.18 g sodium chloride and 3.96 g sodium dihydrogen phosphate are dissolved in 1 L aqua dist., the pH is adjusted to 6.5 with 1N sodium hydroxide. The following conditions were used for quantification: Autosampler without auto inject ahead setting, column: Waters OASIS HLB, 2,1×20 mm, 25μ, column temperature: 30° C., flow rate: 2.5 mL/min, injected volume: 2 μl, Splitter (before MS) 1:20.

[2] = Degradation of prodrugs and release of parent compound in dog plasma; type: in vitro ADME
Method: Measurement of Release of Parent Compound in Dog Plasma 1 mg of the test compound was dissolved in 0.5 mL acetonitrile/dimethylsulfoxide 9:1. For complete dissolution the HPLC vial was shaken and treated with ultrasound. 20 μl of this solution were added to 1 mL of dog plasma (Beagle) under vortexing at a temperature of 37° C. Aliquots (100 μL each) were taken at 0.17, 0.5, 1, 1.5, 2 and 4 hours. Each aliquot was transferred to a vial containing 300 μL of acetonitrile/citric acid buffer pH 3 80:20. These solutions were centrifuged at 5000 rpm for 10 minutes. The supernatant was analysed by HPLC (Method 8) to determine the amount of the test compound. In addition, the reaction mixture was analysed by method 9 (HPLC-MS) at the final timepoint. Both decrease of the prodrug concentration and increase of parent compound concentration were monitored. All data is given as percent area of the prodrug at t0.

[3] = system: Ctenocephalides felis; assay: Antiparasitic activity after administration to rats, fleas; type: in vivo; conditions: for flea efficacy on rats compared with the parent drug also injected subcutaneously: SC; for Efficacy SD42: sc, CF A, study day 42, 13.33-13.98 mg/kg prodrugs
Method: (§1) Measurement of the Antiparasitic Activity after Administration of a Prodrug to Rats Compounds were dissolved in the appropriate volume of glycerol formal (p.a.) just before application to the animals (dose volume was adjusted to 0.03 mL/kg bodyweight). 5 rats per group were either injected intraperitoneally or subcutaneously. Rats were infested with 30 Dermacentor variabilis nymphs on study days −2, 7, 14, 21, 28, 35 and 30 adult Ctenocephalides fleas on study days −1, 8, 15, 22, 29, 36. […] Percent efficacy was calculated as arithmetic mean parasite numbers as life attached tick numbers and live flea numbers of the respective study group in comparison to parasite counts on a placebo-treated control group. Infestation of groups with less than 75% efficacy on two consecutive counting occasions will terminated for the respective parasite.

[4] = system: Dermacentor variabilis; assay: Antiparasitic activity after administration to rats, tick nymphs; type: in vivo; conditions: for tick efficacy on rats compared with the parent drug also injected subcutaneously: SC; for Efficacy SD42: sc, DV N, study day 42, 13.33-13.98 mg/kg prodrugs
Method: as §1

[5] = system: Dermacentor variabilis; assay: Antiparasitic activity after administration to dogs, D. variabilis ticks; type: in vivo; conditions: sc
Method: Measurement of the Antiparasitic Activity after Administration of a Prodrug to Dogs
Compounds were dissolved in the appropriate volume of glycerol formal (p.a.) just before application to the animals (dose volume was adjusted to 0.1 ml/kg bodyweight). Dogs were injected intravenously respective subcutaneously (see table 8 for details).
Dogs were infested with ectoparasites according to table on study 1 day prior to counting for fleas, 2 days prior to counting for RS, IR, DV ticks and 3 days prior to counting for AA ticks. For this purpose, dogs were placed in an individually labeled box with grid windows. The ticks were released onto the back of the dogs and were allowed to disperse and move into the hair without disturbance. The dog remained in the box for approximately 120 minutes with the lid closed and the light switched off in the room. For flea infestations, flea containers were opened in the animal's cage and fleas were applied on the dog's back between the shoulders.
Tick counts including removal of I. ricinus, R. sanguineus and D. variabilis were conducted 48(±4) hours after the infestation. Tick counts including removal of A. americanum were conducted 72(±4) hours after the infestation. Flea counts were conducted 24(±4) hours after the infestation.
On each parasite assessment day percent efficacy was calculated as arithmetic mean parasite numbers as life attached and live free tick numbers and live flea numbers of the respective study group in comparison to parasite counts on a placebo non-treated control group.

Row | Structure (SMILES) | solubility at 24 h [1] | flea efficacy on rats compared with the parent drug also injected subcutaneously [3] | Efficacy SD42 [3] | tick efficacy on rats compared with the parent drug also injected subcutaneously [4] | Efficacy SD42 [4] | further results
1 | N#CC1(N(COC(=O)OCCOC(=O)/C=C/C(=O)O)C(=O)c2cc(-c3cnn(-c4c(Cl)cc(C(F)(C(F)(F)F)C(F)(F)F)cc4OC(F)(F)F)c3)ccc2Cl)CC1 [Example 1, (11E)-1-(2-Chloro-5-{1-[2-chloro-4-(1,1,1,2,3,3,3-heptafluoropropan-2-yl)-6-(trifluoromethoxy)phenyl]-1H-pyrazol-4-yl}phenyl)-2-(1-cyanocyclopropyl)-1,5,10-trioxo-4,6,9-trioxa-2-azatridec-11-en-13-oic Acid] | 5 µg/mL (≈ 5.78 µM) | superior | 79% | superior | 81% | % Parent Drug 4 h ([2]; Beagle, dog, 4 h, 39.2 µg/mL): 32%; recovery at 0.17 h, 39 µg/mL ([2]; dog plasma (Beagle), 37° C., 0.17 h, percent area of prodrug at t0): 100%; recovery at 0.5 h, 39 µg/mL ([2]; dog plasma (Beagle), 37° C., 0.5 h): 100%; recovery at 1 h, 39 µg/mL ([2]; dog plasma (Beagle), 37° C., 1 h): 100%; recovery at 1.5 h, 39 µg/mL ([2]; dog plasma (Beagle), 37° C., 1.5 h): 88%; recovery at 2 h, 39 µg/mL ([2]; dog plasma (Beagle), 37° C., 2 h): 82%; recovery at 4 h, 39 µg/mL ([2]; dog plasma (Beagle), 37° C., 4 h): 54%; duration of efficacy against D. variabilis as least sensitive species [5]: five; % Efficacy in study month 4 ([5]; 13.33 mg/kg (=10 parent), DV, study 4, month 4): 96%; % Efficacy in study month 5 ([5]; 13.33 mg/kg (=10 parent), DV, study 4, month 5): 100%; % Efficacy in study month 6 ([5]; 13.33 mg/kg (=10 parent), DV, study 4, month 6): 77%
2 | N#CC1(N(COC(=O)OCCCOC(=O)/C=C/C(=O)O)C(=O)c2cc(-c3cnn(-c4c(Cl)cc(C(F)(C(F)(F)F)C(F)(F)F)cc4OC(F)(F)F)c3)ccc2Cl)CC1 [Example 2, (12E)-1-(2-Chloro-5-{1-[2-chloro-4-(1,1,1,2,3,3,3-heptafluoropropan-2-yl)-6-(trifluoromethoxy)phenyl]-1H-pyrazol-4-yl}phenyl)-2-(1-cyanocyclopropyl)-1,5,11-trioxo-4,6,10-trioxa-2-azatetradec-12-en-14-oic Acid] | 4 µg/mL (≈ 4.55 µM) |  | 69% |  | 82% | 
3 | CC(C)(COC(=O)/C=C/C(=O)O)COC(=O)OCN(C(=O)c1cc(-c2cnn(-c3c(Cl)cc(C(F)(C(F)(F)F)C(F)(F)F)cc3OC(F)(F)F)c2)ccc1Cl)C1(C#N)CC1 [Example 4, (12E)-1-(2-chloro-5-{1-[2-chloro-4-(1,1,1,2,3,3,3-heptafluoropropan-2-yl)-6-(trifluoromethoxy)phenyl]-1H-pyrazol-4-yl}phenyl)-2-(1-cyanocyclopropyl)-8,8-dimethyl-1,5,11-trioxo-4,6,10-trioxa-2-azatetradec-12-en-14-oic Acid] | 2 µg/mL (≈ 2.2 µM) | superior |  | superior |  | 
4 | Cn1nc(C(F)(F)C(F)(F)F)c(C(F)(F)F)c1-n1cc(-c2ccc(Cl)c(C(=O)N(COC(=O)OCCOC(=O)CC(C)(C)C(=O)O)C3(C#N)CC3)c2)cn1 [Example 40, 1-{2-Chloro-5-[2′-methyl-5′-(pentafluoroethyl)-4′-(trifluoromethyl)-2′H-[1,3′-bipyrazol]-4-yl]phenyl}-2-(1-cyanocyclopropyl)-12,12-dimethyl-1,5,10-trioxo-4,6,9-trioxa-2-azatridecan-13-oic Acid] | 43 µg/mL (≈ 53.8 µM) |  |  |  |  | 
5 | CC(C)(COC(=O)OCN(C(=O)c1cc(-c2cnn(-c3c(Cl)cc(C(F)(C(F)(F)F)C(F)(F)F)cc3OC(F)(F)F)c2)ccc1Cl)C1(C#N)CC1)C(=O)O [Example 41, 3-[({[(2-Chloro-5-{1-[2-chloro-4-(1,1,1,2,3,3,3-heptafluoropropan-2-yl)-6-(trifluoromethoxy)phenyl]-1H-pyrazol-4-yl}benzoyl)(1-cyanocyclopropyl)amino]methoxy}carbonyl)oxy]-2,2-dimethylpropanoic Acid] | 4 µg/mL (≈ 4.86 µM) |  |  |  |  | 
6 | Cn1nc(C(F)(F)C(F)(F)F)c(C(F)(F)F)c1-n1cc(-c2ccc(Cl)c(C(=O)N(COC(=O)O[C@H]3CCC[C@@H]3OC(=O)/C=C/C(=O)O)C3(C#N)CC3)c2)cn1 [Example 42, (2E)-4-({(1S,2S)-2-[({[{2-Chloro-5-[2′-methyl-5′-(pentafluoroethyl)-4′-(trifluoromethyl)-2′H-[1,3′-bipyrazol]-4-yl]benzoyl}(1-cyanocyclopropyl)amino]methoxy}carbonyl)oxy]cyclopentyl}oxy)-4-oxobut-2-enoic Acid] | 38 µg/mL (≈ 47 µM) |  |  |  |  | 
